Where two headings read alike, the source gives them in different places.
Tests used:
[1] = biological target: T1, human soluble ENPP1 (Homo sapiens, UniProt P22413); assay: ENPP1 activity assay using p-Nitrophenyl-5′-AMP as a substrate; assay type: biochemical
T1 construct: 20 ng of human soluble ENPP1
T1 sequence (P22413 103-925 limits assumed): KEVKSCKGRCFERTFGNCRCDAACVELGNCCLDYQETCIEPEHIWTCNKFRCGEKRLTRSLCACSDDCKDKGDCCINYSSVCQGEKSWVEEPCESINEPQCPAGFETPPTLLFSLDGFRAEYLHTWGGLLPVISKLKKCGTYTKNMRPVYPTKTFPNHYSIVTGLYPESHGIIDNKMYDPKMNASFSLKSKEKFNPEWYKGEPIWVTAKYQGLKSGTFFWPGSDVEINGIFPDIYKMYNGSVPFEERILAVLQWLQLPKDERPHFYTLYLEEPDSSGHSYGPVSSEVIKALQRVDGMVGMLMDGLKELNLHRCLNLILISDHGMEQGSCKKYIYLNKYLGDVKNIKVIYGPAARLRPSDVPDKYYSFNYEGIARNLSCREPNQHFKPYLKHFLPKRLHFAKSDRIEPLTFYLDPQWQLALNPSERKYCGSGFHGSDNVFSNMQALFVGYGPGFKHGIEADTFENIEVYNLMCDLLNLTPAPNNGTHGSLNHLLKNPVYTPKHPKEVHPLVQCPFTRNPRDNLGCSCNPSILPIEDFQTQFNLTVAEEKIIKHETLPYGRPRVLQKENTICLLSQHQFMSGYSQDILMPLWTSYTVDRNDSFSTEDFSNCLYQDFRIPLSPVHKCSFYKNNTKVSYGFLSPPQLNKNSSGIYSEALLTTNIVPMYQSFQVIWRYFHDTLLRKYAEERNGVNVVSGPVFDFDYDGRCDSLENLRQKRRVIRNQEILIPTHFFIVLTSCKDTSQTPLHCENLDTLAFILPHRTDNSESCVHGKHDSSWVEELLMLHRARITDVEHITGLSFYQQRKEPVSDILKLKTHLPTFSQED
How it was run: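 Absorbance at 405 nm tracks p-nitrophenol from AMP-pNP hydrolysis after 1 h at room temperature, substrate added as 3 mM (2× final) following 30 min enzyme–compound preincubation. Enzyme: 35 ng human soluble ENPP1. IC50 fitted (variable-slope four-parameter) from percent inhibition normalized to max and blank.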

[2] = biological target: T1, human soluble ENPP1; assay: ENPP1 activity assay using p-Nitrophenyl-5′-TMP as a substrate; assay type: biochemical
How it was run: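 Percent inhibition, set against uninhibited-enzyme and blank wells, was fitted to a four-parameter variable-slope model for IC50. Chromogenic read-out was p-nitrophenol released from TMP-pNP, added as a 2 mM […] solution for 1 h at RT. Before that, 20 ng soluble ENPP1 sat 30 min with compound.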

[3] = biological target: T2, ENPP-1, HEK293 cells (Homo sapiens, UniProt P22413); assay: Cellular enzymatic assay of ENPP-1 inhibitors using TMP-pNP as substrate, HEK 293 cells; assay type: cell-based
T2 construct: ENPP-1 were mainly expressed on the surface of cell membrane; endogenous in cells; host or cells: HEK293
T2 sequence (P22413 1-925): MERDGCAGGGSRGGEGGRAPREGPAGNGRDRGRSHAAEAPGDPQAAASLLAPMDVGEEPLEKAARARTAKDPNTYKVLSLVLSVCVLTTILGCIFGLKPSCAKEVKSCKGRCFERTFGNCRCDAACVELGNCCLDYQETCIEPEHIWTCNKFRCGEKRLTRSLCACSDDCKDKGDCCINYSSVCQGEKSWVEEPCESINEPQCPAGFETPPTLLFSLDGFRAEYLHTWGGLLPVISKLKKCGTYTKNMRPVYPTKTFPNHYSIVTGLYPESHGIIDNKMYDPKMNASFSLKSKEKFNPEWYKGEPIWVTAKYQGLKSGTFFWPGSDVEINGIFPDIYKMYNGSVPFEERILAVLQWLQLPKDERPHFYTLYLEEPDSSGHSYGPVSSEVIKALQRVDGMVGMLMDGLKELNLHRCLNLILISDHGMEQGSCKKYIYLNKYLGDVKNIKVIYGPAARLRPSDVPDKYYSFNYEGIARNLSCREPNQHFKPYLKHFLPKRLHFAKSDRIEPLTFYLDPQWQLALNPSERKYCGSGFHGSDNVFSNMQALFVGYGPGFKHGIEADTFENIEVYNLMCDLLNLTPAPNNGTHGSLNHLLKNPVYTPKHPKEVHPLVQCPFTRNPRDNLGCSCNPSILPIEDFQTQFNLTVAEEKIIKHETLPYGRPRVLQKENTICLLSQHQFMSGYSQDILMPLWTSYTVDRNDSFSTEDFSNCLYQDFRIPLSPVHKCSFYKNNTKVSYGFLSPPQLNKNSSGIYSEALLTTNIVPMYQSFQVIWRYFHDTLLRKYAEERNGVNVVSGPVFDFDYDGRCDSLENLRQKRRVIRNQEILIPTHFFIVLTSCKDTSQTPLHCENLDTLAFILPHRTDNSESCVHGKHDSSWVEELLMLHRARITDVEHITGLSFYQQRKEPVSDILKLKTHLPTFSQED
Method: (§1) ENPP-1 were mainly expressed on the surface of cell membrane where it hydrolytes 2′3′-cGAMP to generate 5′-GMP and 5′-AMP. ENPP-1 also has the ability to hydrolyzes artificial phosphoric acid ester TMP-pNP to nucleotide-5′-monophosphate and p-nitrophcnol there, which is a chromogenic product.
(§2) 8 point of different concentrations of each inhibitor were prepared with the final assay concentrations starting at 20 μM. 3× series dilution by DMEM medium without FBS was applied. Prior to adding inhibitors, 75000 cells per well were incubated at 37° C., 5% CO2 in DMEM for 24 hours. After removing the supernatant medium, 50 μL inhibitor solution was added into each well with cultured cells and incubate at 37° C., 5% CO2 for 60 minutes.
(§3) The IC50 values for percent inhibition versus compound concentration are determined by fitting the inhibition curves using a four-parameter variable slope model in GraphPad Prism® 8.

[4] = biological target: T3, ENPP-1, MDA-MB-231 cells (Homo sapiens, UniProt P22413); assay: cell-based; details: for inhibition at 20 µM: MDA-MB-231, read-out: % Inhibition (at 20 μM)
T3 sequence (P22413 1-925): T2 sequence (P22413 1-925)

[5] = biological target: T4, ENPP-1, Saos-2 cells (Homo sapiens, UniProt P22413); assay: Cellular enzymatic assay of ENPP-1 inhibitors using TMP-pNP as substrate, Saos-2 cells; assay type: cell-based; details: for inhibition at 20 µM: SAOS-2, read-out: % Inhibition (@20 μM)
T4 construct: ENPP-1 were mainly expressed on the surface of cell membrane; endogenous in cells; host or cells: Saos-2
T4 sequence (P22413 1-925): T2 sequence (P22413 1-925)
Method: as §1, §2, §3

[6] = Liver microsome stability, mouse; assay type: in vitro ADME; details: for Hepatic extraction ratio Re / microsomal CLint: Mouse liver microsome; for Half-life t1/2 (min) / half-life: Mouse liver microsome 0.5 mg/mL, NADPH and UDPGA, 37° C.; for half-life / microsomal CLint: liver microsomes; for half-life: read-out: Half-life t1/2; for microsomal CLint: read-out: Intrinsic clearance Cl′int, (μL/min/mg protein)
Method: (§4) Liver microsome assay was used to evaluate the metabolic stability of I-VI. The test article at the concentration of […] was incubated with 0.5 mg/mL liver microsome in the presence of NADPH and UDPGA as the co-factors for 0, 15, 30, 45 and 60 minutes. The incubation was carried out at 37° C. with 5% CO2 and saturating humidity. Disappearance of the test article was monitored by LC/MS/MS. the disappearance half-life (t1/2), intrinsic clearance and hepatic extraction ratio were determined.

[7] = Liver microsome stability, human; assay type: in vitro ADME; details: for Hepatic extraction ratio Re: Human liver microsome; for Half-life t1/2 (min): Human liver microsome 0.5 mg/mL, NADPH and UDPGA, 37° C.
Method: as §4

[8] = test system: cGAMP activated THP-1 cells; assay: ENPP1 inhibitors screening on cGAMP activated THP-1 cells (IFN-β ELISA); assay type: cell-based; details: THP-1 cells with 2′3′-cGAMP, 24 hours, FIGS. 1A-1E
Method: THP-1 cells from bulk cultures were counted and suspended in RPMI 1640, 20% FBS, 2.5 mM L-alanyl-L-glutamine at a concentration of 5.5×10^6 cells/mL. The THP-1 cells were subsequently seeded into 96 well round bottom plates 180 μL/well (1×10^6 cells per well), incubated for 1 hour at 37° C., 5% CO2.
Test compounds were screened in triplicate on THP-1 cells at a final concentration of 10 μM. A working solutions at 0.2 mM. Each well contains 180 μL of THP-1 cell suspension, 10 μL (30 μM, 40 μM or 50 μM) 2′3′-cGAMP (InvivoGen, catalog #tlrl-nacga23) solution (600 μM, 800 μM or 1000 μM) and 10 μL test compound working solution. Incubate for 1 hour.
Vehicle control wells contain 2′3′-cGAMP at concentrations of […] and 50 μM without any test compound. Positive control, 2′3′-cGAMP or 2′,3′-cGAM(PS)2 (Rp/Sp) (InvivoGen, cat #tlrl-nacga2srs) at 40 μM and 80 μM (final concentration).
The final assay volume were 200 μL/well contains: 1) THP-1 cells=180 μL, 2) test compounds=10 μL, 3) 2′3′-cGAMP or 2′3′-cGAM(PS)2 (Rp/Sp) or vehicle control=10 μL.
After incubation for 24 hours at 37° C., 5% CO2, the supernatants were harvested at 200×g for 10 minutes. Cell culture supernatants were then transferred to a clean plate and stored at −80° C. until ready to analyze for IFN-β levels. The IFN-β levels in cell culture supernatants were determined by ELISA kits (PBL Assay Science, catalog #41410) according to the manufacturer's instructions.
The % increase measured for IFN-β in cells treated by the test compounds 12, 48, 89, 103 and 121 relative to that of untreated cells were tested (as shown in FIGS. 1A-1E).

[9] = HEK293, read-out: Inhibition (at 20 μM)

Row | SMILES | IC50 [1] [nM] | IC50 [2] [nM] | IC50 [3] [nM] | inhibition at 20 µM [3, 9] [%] | IC50 [4] [nM] | inhibition at 20 µM [4] [%] | IC50 [5] [nM] | inhibition at 20 µM [5] [%] | Hepatic extraction ratio Re [6] | Half-life t1/2 (min) [6] | Hepatic extraction ratio Re [7] | Half-life t1/2 (min) [7] | half-life [6] [min] | microsomal CLint [6] [µL/min/mg] | % increase measured for IFN-β relative to that of untreated cells [8] | inhibition at 20 µM ([3]; HEK293, HEK 293 cells, at 20 μM, read-out: Inhibition (at 20 μM)) [%]
1 | COc1ccc2c(c1)ncc1[nH]c(=O)n(Cc3ccc(S(N)(=O)=O)cc3)c12 [Compound 35, 4-((7-methoxy-2-oxo-2,3-dihydro-1H-imidazo[4,5-c]quinolin-1-yl)methyl)benzenesulfonamide] | 35 | 0.37 | 3400 | 51 | 1500 | 73 | 5600 | 76 | 0 | ∞ | 0 | ∞ | – | – | – | –
2 | COc1ccc2ncc3ncn(Cc4ccc(S(N)(=O)=O)cc4)c3c2c1 [Compound 36, 4-((8-methoxy-1H-imidazo[4,5-c]quinolin-1-yl)methyl)benzenesulfonamide] | 36 | 3.1 | 5000 | 57 | 1500 | 66 | 2000 | 48 | 0.55 | – | – | – | 49 | 28 | – | –
3 | COc1ccc2c(ncc3[nH]c(=O)n(Cc4ccc(P(=O)(O)O)c(F)c4)c32)n1 [Compound 121, (2-fluoro-4-((7-methoxy-2-oxo-2,3-dihydro-1H-imidazo[4,5-c][1,8]naphthyridin-1-yl)methyl)phenyl)phosphonic acid] | 31 | 9.4 | – | – | 8.2 | 91 | – | – | – | – | – | – | – | – | potently increased the IFN-β levels at very low concentrations | –
4 | COc1cc2ncc3ncn([C@H](C)c4ccc(S(N)(=O)=O)cc4)c3c2cc1OC [Compound 11a, (R)-4-(1-(7,8-dimethoxy-1H-imidazo[4,5-c]quinolin-1-yl)ethyl)benzenesulfonamide] | 2.5 | 0.88 | 2100 | – | 600 | 79 | 1200 | 87 | 0.85 | – | – | – | 11 | 131 | – | 84

Further lines, with some results ahead:

Row | IC50 [1] [nM] | IC50 [2] [nM] | SMILES | IC50 [3] [nM] | inhibition at 20 µM [3, 9] [%] | IC50 [4] [nM] | inhibition at 20 µM [4] [%] | IC50 [5] [nM] | inhibition at 20 µM [5] [%] | Hepatic extraction ratio Re [6] | Half-life t1/2 (min) [6] | Hepatic extraction ratio Re [7] | Half-life t1/2 (min) [7] | half-life [6] [min] | microsomal CLint [6] [µL/min/mg] | % increase measured for IFN-β relative to that of untreated cells [8] | inhibition at 20 µM ([3]; HEK293, HEK 293 cells, at 20 μM, read-out: Inhibition (at 20 μM)) [%]
5 | 5.9 | 1.7 | COc1cc2ncc3[nH]c(=O)n(Cc4ccc(S(N)(=O)=O)cc4)c3c2cc1OC [Compound 1, 4-((7,8-dimethoxy-2-oxo-2,3-dihydro-1H-imidazo[4,5-c]quinolin-1-yl)methyl)benzenesulfonamide] | – | 19 | 2900 | 50 | – | 32 | 0 | ∞ | – | – | – | – | – | –
6 | 0.06 | 0.09 | COc1ccc2c(ncc3[nH]c(=O)n(Cc4c(F)cc(S(N)(=O)=O)cc4F)c32)n1 [Compound 103, 3,5-difluoro-4-((7-methoxy-2-oxo-2,3-dihydro-1H-imidazo[4,5-c][1,8]naphthyridin-1-yl)methyl)benzenesulfonamide] | – | – | 34 | 87 | – | – | – | – | – | – | – | – | potently increased the IFN-β levels at very low concentrations | –
7 | 27 | 1.1 | COc1cc2ncc3ncn(Cc4ccc(S(N)(=O)=O)nc4)c3c2cc1OC [Compound 10, 5-((7,8-dimethoxy-1H-imidazo[4,5-c]quinolin-1-yl)methyl)pyridine-2-sulfonamide] | – | – | – | – | – | – | – | – | 0 | ∞ | – | – | – | –
